Where a name gives a salt, the structure may show the parent alone.

The record followed here is US7846955B2, “Salt” (AstraZeneca AB, priority 2007, dated 2010).

The nature of series [1]: Gravimetric vapour sorption (GVS) water uptake. The format is physicochemical. The note with it: at 80% RH (±0.3%), 25° C. How it is done:
• XRPD—PANalytical CubiX PRO machine in Ø-Ø configuration over the scan range 2° to 40° 2Ø with 100-second exposure per 0.02° increment. The X-rays were generated by a copper long-fine focus tube operated at 45 kV and 40 mA. The wavelength of the copper X-rays was 1.5418 Å. The Data was collected on zero background holders on which ˜2 mg of the compound was placed. The holder was made from a single crystal of silicon, which had been cut along a non-diffracting plane and then polished on an optically flat finish. The X-rays incident upon this surface were negated by Bragg extinction. • DSC thermograms were measured using a TA Q1000 Differential Scanning Calorimeter, with aluminium pans and pierced lids. The sample weights varied between 0.5 to 5 mg. The procedure was carried out under a flow of nitrogen gas (50 ml/min) and the temperature studied from 25 to 300° C. at a constant rate of temperature increase of 10° C. per minute. • TGA thermograms were measured using a TA Q500 Thermogravimetric Analyser, with platinum pans. The sample weights varied between 1 and 5 mg. The procedure was carried out under a flow of nitrogen gas (60 ml/min) and the temperature studied from 25 to 200° C. at a constant rate of temperature increase of 10° C. per minute. • GVS profiles were measured using a Dynamic Vapour Sorption DVS-1 instrument. […]

Series [2] in a line: Evaluation of deaggregation properties of micronised material (Fine Particle Fraction). It counts as physicochemical. Particulars: across relative humidity 0-75% RH. From the text:
‘Salt Form A’ was Micronised in a 50 mm jet mill, with ejector pressure 5 bar and milling pressure 1.5-2 bar, giving (90% yield). Particle size of the micronised material as determined by Malvern Laser Diffraction with dry powder feeder was d(0.1) 0.77 μm: d(0.5), 1.45μ: d(0.9): 2.65 μm.

For series [3], the target named is human muscarinic receptors (M3) (Homo sapiens, UniProt P20309). As to the kind of experiment: Muscarinic Receptor Radioligand Binding Assay (SPA, [3H]-NMS). The note with it: human M3 membranes on SPA beads, 16 hours incubation, read-out: M3 binding pIC50 (converted). How it is done:
The inhibitory effects of compounds of the napadisylate salt were determined by a Muscarinic Receptor Radioligand Binding Assay. Radioligand binding studies were carried out in Scintillation Proximity Assay (SPA) format utilising [3H]-N-methyl scopolamine ([3H]-NMS) and cell membranes expressing the human muscarinic receptors (M2 or M3) which were coated onto SPA beads. Coated SPA beads were incubated in 96-well plates in HEPES buffer with [3H]-NMS and M3 antagonist at various concentrations for 16 hours. Radioligand binding was then counted using a Wallac Microbeta scintillation counter.

human muscarinic receptors (M3), sequence (P20309 whole entry): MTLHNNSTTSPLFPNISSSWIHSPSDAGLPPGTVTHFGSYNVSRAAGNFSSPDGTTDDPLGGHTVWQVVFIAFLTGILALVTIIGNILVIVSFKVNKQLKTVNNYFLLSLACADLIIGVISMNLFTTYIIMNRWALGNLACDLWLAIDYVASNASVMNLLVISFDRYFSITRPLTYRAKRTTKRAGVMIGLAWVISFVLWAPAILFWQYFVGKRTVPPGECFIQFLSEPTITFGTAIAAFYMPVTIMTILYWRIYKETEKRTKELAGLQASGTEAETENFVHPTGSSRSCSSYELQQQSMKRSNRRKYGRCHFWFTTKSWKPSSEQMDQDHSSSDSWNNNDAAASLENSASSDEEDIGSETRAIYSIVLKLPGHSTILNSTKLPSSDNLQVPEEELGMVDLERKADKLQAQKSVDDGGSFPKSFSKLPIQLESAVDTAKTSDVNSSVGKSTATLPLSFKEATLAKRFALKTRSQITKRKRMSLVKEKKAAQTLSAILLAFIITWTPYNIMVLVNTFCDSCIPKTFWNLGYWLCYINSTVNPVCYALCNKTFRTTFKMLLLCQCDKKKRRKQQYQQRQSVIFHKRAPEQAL

As to `C[N+](C)(CCOCc1ccc(Cl)cc1)Cc1cnc([C@](O)(c2ccccc2)C2CCCCC2)o1` [Salt Form A, [2-(4-chloro-benzyloxy)-ethyl]-[2-((R)-cyclohexyl-hydroxy-phenyl-methyl)-oxazol-5-ylmethyl]-dimethyl-ammonium hemi-naphthalene-1,5-disulfonate], in series [1], the GVS weight increase result is given as “less than 0.5 % w/w”. Besides, in series [2], the “Fine Particle Fraction (FPF)” value is reported as greater than 60%. With `C[N+](C)(CCOCc1ccc(Cl)cc1)Cc1cnc([C@](O)(c2ccccc2)C2CCCCC2)o1` [[2-(4-chloro-benzyloxy)-ethyl]-[2-((R)-cyclohexyl-hydroxy-phenyl-methyl)-oxazol-5-ylmethyl]-dimethyl-ammonium], the IC50 in series [3] was 0.158 nM.
